Our source for the IC50 values is patent US11066396B2 (priority 2016, dated 2021).

In test [1] the target is HDAC1 (Homo sapiens (Human), UniProt Q13547). Conditions: read-out: HDAC1 IC50.
Test [2] concerns the target HDAC8 (Homo sapiens (Human), UniProt Q9BY41). Conditions: read-out: HDAC8 IC50.

HDAC1, sequence (Q13547 whole entry): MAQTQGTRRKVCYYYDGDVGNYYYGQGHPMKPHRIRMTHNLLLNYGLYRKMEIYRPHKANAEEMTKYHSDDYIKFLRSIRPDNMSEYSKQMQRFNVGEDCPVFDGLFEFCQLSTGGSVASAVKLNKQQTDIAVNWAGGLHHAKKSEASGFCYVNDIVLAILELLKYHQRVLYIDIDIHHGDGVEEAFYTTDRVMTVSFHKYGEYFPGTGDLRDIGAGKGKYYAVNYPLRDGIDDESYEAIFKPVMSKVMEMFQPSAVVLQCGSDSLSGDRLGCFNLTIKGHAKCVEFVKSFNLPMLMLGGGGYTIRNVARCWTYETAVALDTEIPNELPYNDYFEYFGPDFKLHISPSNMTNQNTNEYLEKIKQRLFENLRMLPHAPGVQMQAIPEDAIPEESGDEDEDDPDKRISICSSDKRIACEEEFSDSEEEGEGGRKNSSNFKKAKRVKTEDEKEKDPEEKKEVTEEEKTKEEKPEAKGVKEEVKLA
HDAC8, sequence (Q9BY41 whole entry): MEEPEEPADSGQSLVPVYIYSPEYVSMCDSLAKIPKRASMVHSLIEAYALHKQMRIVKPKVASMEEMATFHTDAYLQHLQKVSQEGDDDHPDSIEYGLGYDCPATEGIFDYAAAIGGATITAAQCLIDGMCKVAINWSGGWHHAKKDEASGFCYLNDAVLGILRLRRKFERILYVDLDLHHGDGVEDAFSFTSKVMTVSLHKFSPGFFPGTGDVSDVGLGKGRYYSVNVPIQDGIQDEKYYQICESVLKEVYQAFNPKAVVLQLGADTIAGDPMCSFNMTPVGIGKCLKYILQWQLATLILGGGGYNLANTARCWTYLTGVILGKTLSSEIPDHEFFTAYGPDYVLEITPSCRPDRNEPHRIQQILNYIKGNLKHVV

As to `Cc1nccn1C(C)C(=O)N(Cc1ccc(-c2noc(C(F)(F)F)n2)cn1)c1cccc(F)c1` (racemic) [Example 390, N-(3-fluorophenyl)-2-(2-methyl-1H-imidazol-1-yl)-N-({5-[5-(trifluoromethyl)-1,2,4-oxadiazol-3-yl]pyridin-2-yl}methyl)propanamide], the IC50 (commonly the concentration that inhibits the measured activity by half) worked out at 0.43 µM in test [1] and 1.7 µM in test [2].

Turning to `O=C(CC1CCS(=O)(=O)C1)N(Cc1ccc(-c2noc(C(F)(F)F)n2)cn1)c1cccc(F)c1` (racemic) [Example 398, 2-(1,1-dioxidotetrahydrothiophen-3-yl)-N-(3-fluorophenyl)-N-({5-[5-(trifluoromethyl)-1,2,4-oxadiazol-3-yl]pyridin-2-yl}methyl)acetamide], the figures for the IC50 in test [1] and in test [2] were 0.41 µM and 2.3 µM, respectively.

In the case of `CN1CC(C(=O)N(Cc2ccc(-c3noc(C(F)(F)F)n3)cn2)c2cccc(F)c2)CCC1=O` (racemic) [Example 402, N-(3-fluorophenyl)-1-methyl-6-oxo-N-({5-[5-(trifluoromethyl)-1,2,4-oxadiazol-3-yl]pyridin-2-yl}methyl)piperidine-3-carboxamide], the IC50 stood at 0.34 µM in test [1] and 2.6 µM in test [2].

On to `CN1CCC(C(=O)N(Cc2ccc(-c3noc(C(F)(F)F)n3)cn2)c2cccc(F)c2)C1` (racemic) [Example 403, N-(3-fluorophenyl)-1-methyl-N-({5-[5-(trifluoromethyl)-1,2,4-oxadiazol-3-yl]pyridin-2-yl}methyl)pyrrolidine-3-carboxamide], for which the figures for the IC50 in test [1] and in test [2] were 0.25 µM and 2 µM, respectively.

Consider `O=C(C1CCCS(=O)(=O)C1)N(Cc1ccc(-c2noc(C(F)(F)F)n2)cn1)c1cccc(F)c1` (racemic) [Example 405, N-(3-fluorophenyl)-N-({5-[5-(trifluoromethyl)-1,2,4-oxadiazol-3-yl]pyridin-2-yl}methyl)tetrahydro-2H-thiopyran-3-carboxamide 1,1-dioxide], for which the IC50 in test [1] is 0.22 µM; in test [2], 1.6 µM.

Take `O=C1N(CC2CCOCC2)CC(c2ccccc2)N1c1ccc(-c2noc(C(F)(F)F)n2)cc1` (racemic) [Example 422, 4-phenyl-1-(tetrahydro-2H-pyran-4-ylmethyl)-3-{4-[5-(trifluoromethyl)-1,2,4-oxadiazol-3-yl]phenyl}imidazolidin-2-one]: the figures for the IC50 in test [1] and in test [2] were 3.4 µM and 4 µM, respectively.

Regarding `FC(COc1cc(-c2noc(C(F)(F)F)n2)ccn1)CN1CCOCC1` (racemic) [Example 427, 4-[2-fluoro-3-({4-[5-(trifluoromethyl)-1,2,4-oxadiazol-3-yl]pyridin-2-yl}oxy)propyl]morpholine], the results for the IC50 in test [1] and in test [2] were 5.1 µM and 1 µM, respectively.

Take `CC(C)N1CCC(NCc2ccc(-c3noc(C(F)(F)F)n3)cn2)C1=O` (racemic) [Example 435, 1-(1-methylethyl)-3-[({5-[5-(trifluoromethyl)-1,2,4-oxadiazol-3-yl]pyridin-2-yl}methyl)amino]pyrrolidin-2-one]: the IC50 in test [1] is 4.4 µM; in test [2] it was 4.6 µM.

`O=C1CC(NCc2ccc(-c3noc(C(F)(F)F)n3)cn2)CCN1` (racemic) [Example 437, 4-[({5-[5-(trifluoromethyl)-1,2,4-oxadiazol-3-yl]pyridin-2-yl}methyl)amino]piperidin-2-one]: the values for the IC50 in test [1] and in test [2] were 5.4 µM and 5.1 µM, respectively.

For `CN1CCOC(CNCc2ccc(-c3noc(C(F)(F)F)n3)cn2)C1` (racemic) [Example 452, 1-(4-methylmorpholin-2-yl)-N-({5-[5-(trifluoromethyl)-1,2,4-oxadiazol-3-yl]pyridin-2-yl}methyl)methanamine], the IC50 in test [1] was 2.8 µM; in test [2], 2.4 µM.

`O=C1CCC(c2ccccc2)N1c1ncc(-c2noc(C(F)(F)F)n2)cc1F` (stereo not drawn) [Example 5, 1-(3-Fluoro-5-(5-(trifluoromethyl)-1,2,4-oxadiazol-3-yl)pyridin-2-yl)-5-phenylpyrrolidin-2-one]: the values for the IC50 in test [1] and in test [2] were 2.3 µM and 13 µM, respectively.

Take `O=C1CC[C@@H](c2nc3ccccc3[nH]2)N1c1ccc(-c2noc(C(F)(F)F)n2)cc1` [Example 21, (S)-5-(1H-Benzo[d]imidazol-2-yl)-1-(4-(5-(trifluoromethyl)-1,2,4-oxadiazol-3-yl)phenyl)pyrrolidin-2-one]: the values for the IC50 in test [1] and in test [2] were 0.11 µM and 0.66 µM, respectively.

Regarding `O=C1CC[C@@H](c2nc3ccccc3o2)N1c1ccc(-c2noc(C(F)(F)F)n2)cc1F` [Example 22, (S)-5-(Benzo[d]oxazol-2-yl)-1-(2-fluoro-4-(5-(trifluoromethyl)-1,2,4-oxadiazol-3-yl)phenyl)pyrrolidin-2-one], the IC50 in test [1] was 0.032 µM; in test [2] it was 0.35 µM.

Consider `O=C1CCC[C@@H](c2nc3ccccc3s2)N1c1ccc(-c2noc(C(F)(F)F)n2)cc1` [Example 25, (S)-6-(Benzo[d]thiazol-2-yl)-1-(4-(5-(trifluoromethyl)-1,2,4-oxadiazol-3-1)phenyl)piperidin-2-one], for which the IC50 in test [1] stood at 0.22 µM; in test [2], 0.74 µM.

As for `FC(F)(F)c1nc(-c2ccc(N[C@@H]3CCCC[C@H]3c3ccccc3)nc2)no1` [Example 26, N-((1R,2S)-2-Phenylcyclohexyl)-5-(5-(trifluoromethyl)-1,2,4-oxadiazol-3-yl)pyridin-2-amine], the IC50 in test [1] was determined as 4.6 µM; in test [2], 26 µM.

For `FC(F)(F)c1nc(-c2ccc(CN(c3ccccn3)c3ccccn3)cc2)no1` [Example 27, N-(Pyridin-2-yl)-N-(4-(5-(trifluoromethyl)-1,2,4-oxadiazol-3-yl)benzyl)pyridin-2-amine], the IC50 in test [1] was 3.7 µM; in test [2], 4.8 µM.

For the compound `O=c1ccc2ccccc2n1Cc1ccc(-c2noc(C(F)(F)F)n2)cc1` [Example 28, 1-(4-(5-(Trifluoromethyl)-1,2,4-oxadiazol-3-yl)benzyl)quinolin-2(1H)-one], the concentration for half-maximal inhibition (IC50) in test [1] was 0.76 µM; in test [2], 1.6 µM.

For the compound `Cc1nc2cc(F)ccc2n1Cc1ccc(-c2noc(C(F)(F)F)n2)cc1F` [Example 29, 3-(3-Fluoro-4-((5-fluoro-2-methyl-1H-benzo[d]imidazol-1-yl)methyl)phenyl)-5-(trifluoromethyl)-1,2,4-oxadiazole], the values for the IC50 in test [1] and in test [2] were 1.6 µM and 8.2 µM, respectively.

On to `O=C(N1CCOCC1)N(Cc1ccc(-c2noc(C(F)(F)F)n2)cc1)c1cccc(C(F)(F)F)c1` [Example 32, N-(4-(5-(Trifluoromethyl)-1,2,4-oxadiazol-3-yl)benzyl)-N-(3-(trifluoromethyl)phenyl)morpholine-4-carboxamide], for which the IC50 in test [1] came to 0.44 µM; in test [2], 2.3 µM.

As for `CN1CCN(c2ccc(-c3noc(C(F)(F)F)n3)cc2)C(c2ccccc2)C1` (stereo not drawn) [Example 33, 3-(4-(4-Methyl-2-phenylpiperazin-1-yl)phenyl)-5-(trifluoromethyl)-1,2,4-oxadiazole], the IC50 in test [1] came out at 5.3 µM; in test [2] it was 3.9 µM.

As to `O=C1COC[C@@H](c2nc(-c3ccccn3)no2)N1c1ccc(-c2noc(C(F)(F)F)n2)cc1` [Example 34, (S)-5-(3-(Pyridin-2-yl)-1,2,4-oxadiazol-5-yl)-4-(4-(5-(trifluoromethyl)-1,2,4-oxadiazol-3-yl)phenyl)morpholin-3-one], the IC50 in test [1] was determined as 0.064 µM; in test [2], 0.28 µM.
